Source: patent US20230321043A1, “COMPOUNDS HAVING PSEUDOMONAS ANTI-BIOFILM PROPERTIES” (Københavns Universitet, priority 2020, published 2023)

Experiments:
Escherichia coli = assay: biofilm formation / dispersal, host range; assay type: cell-based; details: data not shown
[1] = tested on: P. aeruginosa (PA01) tagged with GFP biofilm; assay: flow-chamber biofilm, confocal laser scanning microscopy; assay type: cell-based, Pseudomonas aeruginosa
Procedure: Biofilms were grown at 37° C. in continuous-culture, once-through, three-channel, flow-chambers (individual channel dimensions of 1×4×40 mm) perfused with sterile AB trace minimal medium (Pamp and Tolker-Nielsen, 2007), supplemented with 0.3 mM glucose and 0.025% (v/v) DMSO. P. aeruginosa (PA01) tagged with GFP at a neutral chromosomal locus was used for the experiments. After a static attachment phase of 1 h, the flow of medium was turned on and the biofilms were allowed to establish for 48 h in the absence (untreated) or presence (treated) of medium supplemented with 25 μM of H6-335-P1. Confocal laser scanning microscopy was used to image the biofilms after 24 h and 48 h (FIG. 5A).
Confocal laser scanning microscopy was used to image the biofilm immediately before H6-335-P1 was added, and after 4 h of H6-335-P1 treatment. Simulated fluorescence projections in 3D were generated from the image stacks using the IMARIS software package (Bitplane, Oxford Imaging, UK) and the resulting images were processed for publication using Photoshop (Adobe, USA).

[2] = tested on: P. aeruginosa biofilms on implants; assay: P. aeruginosa-infected peritoneal implant model in mice; assay type: in vivo; details: intraperitoneal
Procedure: Silicone implants (5 mm long, 6 mm OD×4 mm ID) were incubated with P. aeruginosa cultures (OD 0.1) for 20 hours to allow bacterial adhesion and subsequent coating. At time t=0, mice had the implants inserted in the peritoneal cavity and biofilm developed on the implants for 24 hours. (A) At 24 hours and 26 hours post-insertion of the implants (PI), the mice were treated with either H6-335-P1 (named “H6 P1” in FIG. 8) 25 μM (˜6 μg/g BW) in 0.2% cyclodextrin or 0.2% cyclodextrin, and at 26 hours PI with 30 μg per g BW tobramycin (TOB) or 0.9% NaCl. […] At 28 hours PI the mice were euthanized, and the bacterial contents as CFU per implant were determined. The median CFU per implant for the placebo group was set to 100. The median CFU per implant for the placebo groups were 8.5×10^6 (A) and 1.5×10^6 (B). Horizontal lines indicate median CFU for each group. Each symbol represents a mouse. Significance levels are based on Mann-Whitney U test (analysis of non-parametric data). IP administered doses: TOB: 30 mg/Kg BW, CIP: 10 mg/Kg BW, H6 P1: 2×6 mg/Kg BW.
The inventors first determined H6-335-P1 anti-biofilm efficacy in implant-harboring mice at low dosages (concentration) of 5 to 25 μM H6-335-P1 which corresponds to 1 to 5 μg H6-335-P1 per gram of body weight. […]

Pseudomonas putida = assay: biofilm formation, crystal violet, host range; assay type: cell-based; details: 100 μM, 8 hours, FIG. 11
Procedure: (§1) To determine the host range of H6-335-P1, the inventors conducted a Blast search for analogs of the P. aeruginosa BifA phosphodiesterase protein encoded by gene PA4367 (bifA).
(§2) Briefly, the experiment presented in FIG. 11 were carried out in 96 well microtiter plates as follows. 20 hours old cultures of either P. aeruginosa, P. putida or P. flourescens were diluted 1000 fold into 100 μL aliquots of ABtrace media supplemented with 0.5% Cas amino acids, 0.2% glucose, 1 μM FeCl3, 0.2% DMSO and either 100 μM H6-335-P1 or none H6-335-P1. The resulting microtiter plate were sealed with an air permeable lid and the cultures were incubated at 37° C. on rotary shaker at 160 RPM. Following 8 hours of growth the culture supernatants were discarded and the amount of biofilm present in each well were quantified by the use of crystal violet staining. Finally, the obtained values of crystal violet (biofilm material) were plotted as a function of strain and the presence of 100 μM H6-335-P1 or absence of H6-335-P1. In FIG. 11 means and standard deviations (bars) represents 4 biological replicates (n=4).

Pseudomonas flourescens = assay: biofilm formation, crystal violet, host range; assay type: cell-based; details: 100 μM, 8 hours, FIG. 11
Procedure: as §1, §2

[3] = tested on: P. aeruginosa ΔbifAΔwspFΔpelΔpsl/pCdrA-gfp; assay: c-di-GMP monitor read-out in bifA knockout; assay type: cell-based, Pseudomonas aeruginosa; details: 100 μM, 18 hours of cultivation, FIG. 6B right
Procedure: This experiment was done using a 96 well microtiter format where 20 hour old cultures of the P. aeruginosa ΔwspFΔpelΔpsl/pCdrA-gfp c-di-GMP monitor strain and the P. aeruginosa ΔbifAΔwspFΔpelΔpsl/pCdrA-gfp c-di-GMP monitor strain were diluted 100 fold into 100 μL ABTrace media aliquots supplemented with 0.2% glucose, 0.5% casamino acids, 1 μM FeCl3, 60 μg/mL of gentamicin, 1% DMSO and either 100 μM or 0 μM of H6-335-P1. The resulting microtitter was incubated at 37° C. and 440 RPM in a Tecan reader, and corresponding values of GFP fluorescence (FU) and cell density (OD600) was measured every 20 minutes for 24 hours.

Enterococcus facieum = assay: biofilm formation / dispersal, host range; assay type: cell-based; details: data not shown
[4] = solubility in aqueous media; details: aqueous media

N=C1NN=C(N)/C1=N/Nc1ccccc1F [H6-335-P1, 4-[(2-fluorophenyl) hydrazinylidene]pyrazole-3,5-diamine]
biofilm formation of Escherichia coli (Escherichia coli): failed to reduce biofilm formation | prevention of biofilm formation in flow-through cells ([1]; 25 μM in the growth medium, 48 h, FIG. 5A): significantly prevented biofilm formation | biofilm biomass left behind ([1]; 25 μM, 48 h old biofilm, after four hours of exposure, FIG. 5B): 10% | biofilm bacteria dispersed from the implant ([2]; 5 to 25 μM (1 to 5 μg per gram of body weight), four hours of exposure, not shown): up to 90% | CFU on implants, combinatorial treatment followed by tobramycin or ciprofloxacin ([2]; FIG. 8): synergistic antimicrobial (lethal) effects | biofilm formation of Pseudomonas putida (Pseudomonas putida): significantly less biofilm | biofilm formation of Pseudomonas flourescens (Pseudomonas flourescens): significantly less biofilm | fluorescent read-out of ΔbifA c-di-GMP monitor strain [3]: completely unaffected | biofilm formation of Enterococcus facieum (Enterococcus facieum): failed to reduce biofilm formation | solubility [4]: < 2 µM
